Data taken from ChEMBL document CHEMBL4507293 (2021).

Legend:
[1] = tested on: Tyrosine-protein kinase ABL1 (Homo sapiens), P00519 [E255K]; conditions: Compound concentration 100.0 nM
[2] = target: Activin receptor type-1 (Homo sapiens) (UniProt Q04771); conditions: Compound concentration 100.0 nM
[3] = target: Serine/threonine-protein kinase B-raf (Homo sapiens) (UniProt P15056); conditions: Compound concentration 100.0 nM
[4] = target: Serine/threonine-protein kinase BRSK1 (Homo sapiens) (UniProt Q8TDC3); conditions: Compound concentration 100.0 nM
[5] = target: Serine/threonine-protein kinase BRSK2 (Homo sapiens) (UniProt Q8IWQ3); conditions: Compound concentration 100.0 nM
[6] = target: Serine/threonine-protein kinase Chk1 (Homo sapiens) (UniProt O14757); conditions: Compound concentration 100.0 nM
[7] = target: Casein kinase II subunit alpha (Homo sapiens) (UniProt P68400); conditions: Compound concentration 100.0 nM
[8] = target: Serine/threonine-protein kinase MRCK gamma (Homo sapiens) (UniProt Q6DT37); conditions: Compound concentration 100.0 nM
[9] = target: Dual specificity tyrosine-phosphorylation-regulated kinase 2 (Homo sapiens) (UniProt Q92630); conditions: Compound concentration 100.0 nM
[10] = tested on: Epidermal growth factor receptor (Homo sapiens), P00533 [UNDEFINED MUTATION]; conditions: Compound concentration 100.0 nM
[11] = target: Ephrin type-B receptor 4 (Homo sapiens) (UniProt P54760); conditions: Compound concentration 100.0 nM
Ephrin type-B receptor 4 (Homo sapiens), sequence (P54760 whole entry): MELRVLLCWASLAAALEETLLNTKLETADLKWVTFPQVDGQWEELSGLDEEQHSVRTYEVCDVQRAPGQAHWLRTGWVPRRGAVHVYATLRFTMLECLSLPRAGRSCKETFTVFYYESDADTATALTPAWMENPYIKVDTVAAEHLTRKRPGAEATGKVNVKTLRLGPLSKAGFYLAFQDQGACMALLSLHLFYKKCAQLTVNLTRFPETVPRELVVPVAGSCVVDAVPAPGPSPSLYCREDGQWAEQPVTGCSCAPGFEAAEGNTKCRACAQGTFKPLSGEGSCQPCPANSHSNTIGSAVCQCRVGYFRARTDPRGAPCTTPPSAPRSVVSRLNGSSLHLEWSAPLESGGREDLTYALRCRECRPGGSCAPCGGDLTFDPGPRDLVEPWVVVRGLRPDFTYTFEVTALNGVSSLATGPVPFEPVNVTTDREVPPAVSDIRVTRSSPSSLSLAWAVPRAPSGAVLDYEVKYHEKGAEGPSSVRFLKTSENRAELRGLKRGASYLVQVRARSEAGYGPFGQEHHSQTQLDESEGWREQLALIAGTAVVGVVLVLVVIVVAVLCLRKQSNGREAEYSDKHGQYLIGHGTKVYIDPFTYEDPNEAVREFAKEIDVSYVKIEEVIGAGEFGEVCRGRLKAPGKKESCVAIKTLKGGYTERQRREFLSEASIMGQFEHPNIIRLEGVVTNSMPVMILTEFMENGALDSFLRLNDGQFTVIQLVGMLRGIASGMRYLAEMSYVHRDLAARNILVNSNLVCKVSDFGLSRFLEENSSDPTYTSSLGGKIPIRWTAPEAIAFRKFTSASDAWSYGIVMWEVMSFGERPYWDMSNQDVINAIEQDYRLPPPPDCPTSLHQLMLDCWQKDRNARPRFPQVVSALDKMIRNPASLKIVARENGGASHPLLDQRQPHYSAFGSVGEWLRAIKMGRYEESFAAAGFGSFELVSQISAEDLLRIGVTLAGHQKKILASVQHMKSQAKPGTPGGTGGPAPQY

[12] = target: Fibroblast growth factor receptor 2 (Homo sapiens) (UniProt P21802); conditions: Compound concentration 100.0 nM
[13] = target: G protein-coupled receptor kinase 4 (Homo sapiens) (UniProt P32298); conditions: Compound concentration 100.0 nM
[14] = target: Myosin-IIIa (Homo sapiens) (UniProt Q8NEV4); conditions: Compound concentration 100.0 nM
[15] = target: Serine/threonine-protein kinase Nek11 (Homo sapiens) (UniProt Q8NG66); conditions: Compound concentration 100.0 nM
[16] = target: Serine/threonine-protein kinase Nek9 (Homo sapiens) (UniProt Q8TD19); conditions: Compound concentration 100.0 nM
Serine/threonine-protein kinase Nek9 (Homo sapiens), sequence (Q8TD19 whole entry): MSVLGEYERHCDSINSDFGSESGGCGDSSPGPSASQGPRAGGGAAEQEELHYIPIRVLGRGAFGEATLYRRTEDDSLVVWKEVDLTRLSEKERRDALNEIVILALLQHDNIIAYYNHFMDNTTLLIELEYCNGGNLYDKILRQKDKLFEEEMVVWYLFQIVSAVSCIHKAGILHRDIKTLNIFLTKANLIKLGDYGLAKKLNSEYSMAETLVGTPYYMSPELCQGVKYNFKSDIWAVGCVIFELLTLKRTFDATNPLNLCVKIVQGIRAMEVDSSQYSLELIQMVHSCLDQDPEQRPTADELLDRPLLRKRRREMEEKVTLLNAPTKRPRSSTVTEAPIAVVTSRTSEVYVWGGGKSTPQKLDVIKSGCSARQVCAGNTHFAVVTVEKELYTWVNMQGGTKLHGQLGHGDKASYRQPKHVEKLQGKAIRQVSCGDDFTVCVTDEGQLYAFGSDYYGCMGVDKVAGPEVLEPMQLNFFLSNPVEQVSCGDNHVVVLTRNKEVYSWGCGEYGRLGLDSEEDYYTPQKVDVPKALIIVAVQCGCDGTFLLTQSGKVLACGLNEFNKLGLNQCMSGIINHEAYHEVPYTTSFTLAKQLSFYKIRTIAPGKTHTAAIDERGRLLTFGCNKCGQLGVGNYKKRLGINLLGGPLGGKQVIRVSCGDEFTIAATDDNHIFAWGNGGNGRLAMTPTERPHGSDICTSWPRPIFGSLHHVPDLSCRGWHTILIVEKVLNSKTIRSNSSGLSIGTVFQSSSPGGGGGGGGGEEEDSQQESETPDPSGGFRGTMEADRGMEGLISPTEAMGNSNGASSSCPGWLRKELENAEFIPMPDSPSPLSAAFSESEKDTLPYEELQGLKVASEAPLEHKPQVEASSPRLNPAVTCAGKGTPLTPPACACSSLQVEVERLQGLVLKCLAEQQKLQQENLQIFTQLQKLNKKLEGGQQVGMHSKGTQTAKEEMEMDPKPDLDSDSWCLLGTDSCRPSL

[17] = target: Mitogen-activated protein kinase 13 (Homo sapiens) (UniProt O15264); conditions: Compound concentration 100.0 nM
[18] = target: Serine/threonine-protein kinase PAK 5 (Homo sapiens) (UniProt Q9P286); conditions: Compound concentration 100.0 nM
[19] = target: Phosphatidylinositol 4-phosphate 3-kinase C2 domain-containing subunit beta (Homo sapiens) (UniProt O00750); conditions: Compound concentration 100.0 nM
[20] = tested on: Phosphatidylinositol 4,5-bisphosphate 3-kinase catalytic subunit alpha isoform (Homo sapiens), P42336 [E542K]; conditions: Compound concentration 100.0 nM
Phosphatidylinositol 4,5-bisphosphate 3-kinase catalytic subunit alpha isoform (Homo sapiens), P42336 [E542K], sequence (P42336 whole entry E542K, canonical isoform): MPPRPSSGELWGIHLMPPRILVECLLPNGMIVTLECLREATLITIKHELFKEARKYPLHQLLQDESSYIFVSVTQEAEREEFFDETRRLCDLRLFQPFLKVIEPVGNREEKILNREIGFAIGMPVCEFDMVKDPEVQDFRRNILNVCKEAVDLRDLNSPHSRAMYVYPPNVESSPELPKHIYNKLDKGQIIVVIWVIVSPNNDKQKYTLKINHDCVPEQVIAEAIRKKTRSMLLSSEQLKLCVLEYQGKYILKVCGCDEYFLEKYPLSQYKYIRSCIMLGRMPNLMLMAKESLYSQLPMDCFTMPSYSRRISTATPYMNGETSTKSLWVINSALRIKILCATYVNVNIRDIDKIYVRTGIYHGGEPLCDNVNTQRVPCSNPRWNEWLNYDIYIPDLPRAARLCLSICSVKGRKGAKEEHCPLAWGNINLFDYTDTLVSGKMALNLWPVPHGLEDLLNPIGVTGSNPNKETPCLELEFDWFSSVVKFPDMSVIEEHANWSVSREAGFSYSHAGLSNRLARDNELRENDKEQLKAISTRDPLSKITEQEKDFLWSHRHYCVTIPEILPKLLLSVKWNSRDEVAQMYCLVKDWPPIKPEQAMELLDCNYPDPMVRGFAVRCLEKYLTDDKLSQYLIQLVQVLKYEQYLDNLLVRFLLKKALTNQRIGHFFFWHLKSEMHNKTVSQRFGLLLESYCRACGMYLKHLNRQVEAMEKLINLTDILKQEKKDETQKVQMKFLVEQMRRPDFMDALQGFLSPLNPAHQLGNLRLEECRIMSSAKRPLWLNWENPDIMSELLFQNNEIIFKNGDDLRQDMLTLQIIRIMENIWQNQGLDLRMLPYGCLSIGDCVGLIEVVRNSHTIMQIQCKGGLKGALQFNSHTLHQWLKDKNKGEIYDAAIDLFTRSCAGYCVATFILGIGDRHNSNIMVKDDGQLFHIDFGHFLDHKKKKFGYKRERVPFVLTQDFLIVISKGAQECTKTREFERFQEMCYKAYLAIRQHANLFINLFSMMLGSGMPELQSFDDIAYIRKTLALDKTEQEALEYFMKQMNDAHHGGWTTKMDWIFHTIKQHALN

[21] = tested on: Phosphatidylinositol 4,5-bisphosphate 3-kinase catalytic subunit alpha isoform (Homo sapiens), P42336 [H1047Y]; conditions: Compound concentration 100.0 nM
Phosphatidylinositol 4,5-bisphosphate 3-kinase catalytic subunit alpha isoform (Homo sapiens), P42336 [H1047Y], sequence (P42336 whole entry H1047Y, canonical isoform): as the sequence (P42336 whole entry E542K, canonical isoform) above, with K542E, H1047Y counted along it

[22] = target: Serine/threonine-protein kinase pim-3 (Homo sapiens) (UniProt Q86V86); conditions: Compound concentration 100.0 nM
[23] = target: Protein kinase C epsilon type (Homo sapiens) (UniProt Q02156); conditions: Compound concentration 100.0 nM
[24] = target: Serine/threonine-protein kinase SIK3 (Homo sapiens) (UniProt Q9Y2K2); conditions: Compound concentration 100.0 nM
Serine/threonine-protein kinase SIK3 (Homo sapiens), sequence (Q9Y2K2 whole entry, looked up): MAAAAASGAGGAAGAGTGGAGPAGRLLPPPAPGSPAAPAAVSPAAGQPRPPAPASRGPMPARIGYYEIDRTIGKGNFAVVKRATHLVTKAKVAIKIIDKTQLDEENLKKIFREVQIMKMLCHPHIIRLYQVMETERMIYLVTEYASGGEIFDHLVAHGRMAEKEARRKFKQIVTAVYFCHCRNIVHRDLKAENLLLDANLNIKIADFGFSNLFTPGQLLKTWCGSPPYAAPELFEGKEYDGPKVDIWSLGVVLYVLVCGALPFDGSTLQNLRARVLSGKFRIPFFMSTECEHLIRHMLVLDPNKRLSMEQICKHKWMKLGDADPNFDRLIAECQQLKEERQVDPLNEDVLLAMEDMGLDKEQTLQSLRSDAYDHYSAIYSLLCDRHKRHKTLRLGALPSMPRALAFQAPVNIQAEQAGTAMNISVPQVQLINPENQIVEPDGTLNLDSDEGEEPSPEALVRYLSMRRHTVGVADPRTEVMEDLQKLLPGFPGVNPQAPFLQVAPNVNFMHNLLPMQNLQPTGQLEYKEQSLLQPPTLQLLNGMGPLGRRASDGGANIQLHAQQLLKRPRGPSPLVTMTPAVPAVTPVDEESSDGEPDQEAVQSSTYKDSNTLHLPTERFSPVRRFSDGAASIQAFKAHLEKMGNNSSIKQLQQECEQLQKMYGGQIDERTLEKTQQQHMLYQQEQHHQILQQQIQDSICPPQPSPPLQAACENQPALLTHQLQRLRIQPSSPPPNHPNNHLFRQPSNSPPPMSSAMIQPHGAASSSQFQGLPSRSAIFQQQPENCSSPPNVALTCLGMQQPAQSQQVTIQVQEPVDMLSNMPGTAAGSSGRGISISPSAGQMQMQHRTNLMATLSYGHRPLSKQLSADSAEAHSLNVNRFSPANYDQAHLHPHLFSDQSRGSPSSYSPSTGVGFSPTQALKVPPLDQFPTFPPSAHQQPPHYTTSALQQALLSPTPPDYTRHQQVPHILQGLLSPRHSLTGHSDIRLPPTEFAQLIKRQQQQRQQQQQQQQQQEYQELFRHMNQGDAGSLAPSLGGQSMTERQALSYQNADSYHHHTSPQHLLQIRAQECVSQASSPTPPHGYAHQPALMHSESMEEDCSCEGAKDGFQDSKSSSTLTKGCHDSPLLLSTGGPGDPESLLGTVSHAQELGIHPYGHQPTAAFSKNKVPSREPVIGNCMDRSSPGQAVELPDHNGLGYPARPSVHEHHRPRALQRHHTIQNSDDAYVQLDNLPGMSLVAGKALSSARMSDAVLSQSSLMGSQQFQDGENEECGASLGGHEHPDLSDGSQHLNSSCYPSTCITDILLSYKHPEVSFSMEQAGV

[25] = target: Serine/threonine-protein kinase 33 (Homo sapiens) (UniProt Q9BYT3); conditions: Compound concentration 100.0 nM
[26] = target: Serine/threonine-protein kinase TAO1 (Homo sapiens) (UniProt Q7L7X3); conditions: Compound concentration 100.0 nM
[27] = target: Serine/threonine-protein kinase ULK3 (Homo sapiens) (UniProt Q6PHR2); conditions: Compound concentration 100.0 nM
[28] = target: Alpha-1B adrenergic receptor (Homo sapiens) (UniProt P35368); conditions: Compound concentration 10.0 uM
Alpha-1B adrenergic receptor (Homo sapiens), sequence (P35368 whole entry): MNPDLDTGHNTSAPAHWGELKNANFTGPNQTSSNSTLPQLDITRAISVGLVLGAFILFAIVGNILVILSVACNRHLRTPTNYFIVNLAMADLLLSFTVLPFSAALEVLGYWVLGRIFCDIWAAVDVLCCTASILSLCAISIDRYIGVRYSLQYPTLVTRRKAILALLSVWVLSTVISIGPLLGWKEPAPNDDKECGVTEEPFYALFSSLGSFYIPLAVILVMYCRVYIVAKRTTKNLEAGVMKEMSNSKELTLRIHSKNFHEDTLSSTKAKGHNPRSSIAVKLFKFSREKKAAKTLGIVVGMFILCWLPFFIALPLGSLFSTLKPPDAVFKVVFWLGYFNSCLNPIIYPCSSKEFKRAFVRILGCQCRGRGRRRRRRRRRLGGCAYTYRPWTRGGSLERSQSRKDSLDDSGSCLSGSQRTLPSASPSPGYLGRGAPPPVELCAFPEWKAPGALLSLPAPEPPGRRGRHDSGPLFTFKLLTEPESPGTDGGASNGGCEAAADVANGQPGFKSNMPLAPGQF

[29] = target: T1, Muscarinic acetylcholine receptor M1 (Homo sapiens) (UniProt P11229); conditions: Compound concentration 10.0 uM
T1 sequence (whole entry): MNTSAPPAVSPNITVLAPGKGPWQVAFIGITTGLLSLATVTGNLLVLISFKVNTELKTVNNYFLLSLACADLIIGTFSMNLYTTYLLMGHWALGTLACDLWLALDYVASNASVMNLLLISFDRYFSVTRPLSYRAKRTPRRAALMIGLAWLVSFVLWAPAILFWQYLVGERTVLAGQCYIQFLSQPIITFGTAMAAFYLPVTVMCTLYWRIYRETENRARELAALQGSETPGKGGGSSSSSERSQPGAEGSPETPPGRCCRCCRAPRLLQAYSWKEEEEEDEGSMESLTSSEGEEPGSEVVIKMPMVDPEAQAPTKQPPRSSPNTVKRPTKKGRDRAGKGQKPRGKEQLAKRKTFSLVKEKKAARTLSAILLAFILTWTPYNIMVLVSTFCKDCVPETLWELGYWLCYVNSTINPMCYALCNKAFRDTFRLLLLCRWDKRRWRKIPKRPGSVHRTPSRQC

[30] = target: T2, Muscarinic acetylcholine receptor M5 (Homo sapiens) (UniProt P08912); conditions: Compound concentration 10.0 uM
T2 sequence (whole entry): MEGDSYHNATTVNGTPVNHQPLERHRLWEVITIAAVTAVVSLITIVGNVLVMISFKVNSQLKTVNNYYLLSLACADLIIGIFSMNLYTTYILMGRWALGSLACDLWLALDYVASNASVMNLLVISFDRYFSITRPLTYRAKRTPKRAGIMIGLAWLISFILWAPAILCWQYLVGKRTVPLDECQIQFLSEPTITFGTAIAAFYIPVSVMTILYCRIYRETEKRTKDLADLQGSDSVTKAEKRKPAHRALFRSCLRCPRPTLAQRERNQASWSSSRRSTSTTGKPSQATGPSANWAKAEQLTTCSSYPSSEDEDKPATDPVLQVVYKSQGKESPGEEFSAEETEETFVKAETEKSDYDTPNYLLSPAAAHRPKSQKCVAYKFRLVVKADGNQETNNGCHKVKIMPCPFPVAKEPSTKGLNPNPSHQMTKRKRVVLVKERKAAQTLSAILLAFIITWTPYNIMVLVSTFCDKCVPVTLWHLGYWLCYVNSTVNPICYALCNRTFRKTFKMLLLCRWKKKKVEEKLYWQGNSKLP

[31] = target: Beta-3 adrenergic receptor (Homo sapiens) (UniProt P13945); conditions: Compound concentration 10.0 uM

COCCOc1nc(-c2ccc(Cl)nc2)nc2c1CN(C(=O)c1ncn3ccccc13)CC2 [THPP-1]
inactive: residual activity [1] 100% | residual activity [2] 100% | residual activity [3] 100% | residual activity [4] 100% | residual activity [5] 93% | residual activity [6] 100% | residual activity [7] 99% | residual activity [8] 100% | residual activity [9] 100% | residual activity [10] 100% | residual activity [11] 100% | residual activity [12] 100% | residual activity [13] 73% | residual activity [14] 100% | residual activity [15] 100% | residual activity [16] 100% | residual activity [17] 100% | residual activity [18] 100% | residual activity [19] 100% | residual activity [20] 87% | residual activity [21] 79% | residual activity [22] 100% | residual activity [23] 89% | residual activity [24] 100% | residual activity [25] 53% | residual activity [26] 100% | residual activity [27] 81% | inhibition [28] 10.8% | inhibition [29] -4.03% | inhibition [30] 7.79% | inhibition [31] 1.51%

CC(C)CC(=O)N1CCc2nc(-c3ccc(Br)cc3)nc(N(C)Cc3ccccc3)c2C1 [THPP-1-NC]
inactive: residual activity [1] 100% | residual activity [2] 100% | residual activity [3] 100% | residual activity [4] 100% | residual activity [5] 94% | residual activity [6] 100% | residual activity [7] 100% | residual activity [8] 100% | residual activity [9] 84% | residual activity [10] 100% | residual activity [11] 100% | residual activity [12] 100% | residual activity [13] 75% | residual activity [14] 96% | residual activity [15] 98% | residual activity [16] 100% | residual activity [17] 100% | residual activity [18] 100% | residual activity [19] 100% | residual activity [20] 100% | residual activity [21] 76% | residual activity [22] 100% | residual activity [23] 100% | residual activity [24] 100% | residual activity [25] 74% | residual activity [26] 100% | residual activity [27] 89% | inhibition [28] 17.5% | inhibition [29] 4.18% | inhibition [30] 7.59% | inhibition [31] 12.3%
